The results in this text go back to patent publication US20090131343A1, “USE OF BRIDGED MACROLIDES OR TYLOSIN DERIVATIVES IN TREATING INFLAMMATORY BOWEL DISEASES” (priority 2007, published 2009).

Each structure is given as a SMILES string.

The test concerns NFkB. Put plainly: In vitro inflammatory assay: TNFα-induced NFkB luciferase reporter in Jurkat cells. In kind it is cell-based. The settings on record: for IC50 / inhibition at 120 µM: Homo sapiens; for IC50: read-out: IC50 (μM), in vitro inflammatory data (inhibition of NFkB activity). The protocol:
I. Protocol for In Vitro Inflammatory Assay:
• 1. Jurkat cell line expressing a luciferase reporter under the control of an NFkB promoter sequence was created. Clones were isolated using G418 and then characterized for enhanced luciferase activity following stimulation of cells with either TNFα or PMA+Ionomycin. • 2. Assay protocol was as follows: • Day 1: Cells were split to a density of 1.1×10^5 cells/mL. • Day 2: • Cells were adjusted to a density of 2×10^5/mL. • 100 μl of cells were added to each well of a 96-well plate. • Test compounds were diluted to 200 μg/mL in media (1% DMSO). • 100 μl of diluted test compound was added to cells. Final test compound concentration from […] was added and the final DMSO concentration=0.5%. Compounds were tested in duplicate. • Plates were incubated 1 hour at 37° C. • 10 μl of a 2.1 nM TNFα solution was added to each well. Plates were returned to 37° C. for another 4 hours. • TNFα-induced luciferase activity was determined using commercially available kits and a microplate luminometer. • Inhibition of NFkB activity was determined by comparing luciferase activity from test compound-treated cells to luciferase activity in 0.5% DMSO-treated (control) cells.
(In general: A reporter such as luciferase makes a cellular process visible.)

Where [1] appears, read: Jurkat NFkB-luciferase reporter cells, TNFα stimulation, 1 hour preincubation + 4 hours.
The mark [2] stands for this setting: Jurkat NFkB-luciferase reporter cells, TNFα stimulation.

As for `CC[C@@H]1OC(=O)C[C@H](O)[C@@H](C)[C@H](OC2O[C@H](C)[C@H](OC(C)=O)[C@H](N(C)C)[C@@H]2OC(C)=O)[C@H](CCO)C[C@H](C)C(=O)/C=C/C(C)=C/[C@@H]1CO[Si](C)(C)C(C)(C)C` (stereo partly shown) [Entry 11], the IC50 – broadly, the concentration that gives 50% inhibition – under setting [1] was 22 µM. The same measure, in the same setting: as for `CC[C@H]1OC(=O)[C@H](C)[C@@H](C)[C@H](C)[C@H](OC2O[C@H](C)C[C@H](N(C)C)[C@@H]2OC(=O)c2ccccc2)[C@](C)(O)C[C@H](C)/C(=N\OCOCCN2CCN(c3ccccc3)CC2)[C@@H](C)[C@H](O)[C@@]1(C)O` (stereo partly shown) [Entry 10], the figure is 30 µM. Consider `CC[C@H]1OC(=O)C[C@@H](O)[C@H](C)[C@@H](O[C@@H]2O[C@H](C)[C@@H](O[C@H]3C[C@@](C)(O)[C@@H](O)[C@H](C)O3)[C@H](N(C)C)[C@H]2O)[C@@H](CC=O)C[C@@H](C)C(=O)/C=C/C(C)=C/[C@@H]1CO[C@@H]1O[C@H](C)[C@@H](O)[C@@H](OC)[C@H]1OC` [Tylosin], for which, under setting [1], the IC50 is more than 120 µM. Moreover, the inhibition (commonly the percentage by which the read-out fell short of the control) at 120 µM under setting [2] is approximately 20%. In the case of `CC[C@H]1OC(=O)C[C@@H](O)[C@H](C)[C@@H](OC2O[C@H](C)[C@@H](OC(=O)c3ccccc3)[C@H](C(C)C)[C@H]2OC(=O)c2ccccc2)[C@@H](CC=O)C[C@@H](C)C(=O)/C=C/C(C)=C/[C@@H]1CO` (stereo partly shown) [Entry 12], the IC50 under setting [1] is 17 µM. Same read-out and setting: as for `C=CCOC1C(C)OC(O[C@H]2[C@@H](CC=O)C[C@@H](C)C(=O)/C=C/C=C/C[C@@H](C)OC(=O)/C=C/[C@@H]2OC)C(O)C1N(C)C` (stereo partly shown) [Entry 8], the figure is 41 µM. For the molecule `CO[C@@H]1[C@@H](O[C@@H]2O[C@H](C)[C@@H](O[C@H]3C[C@@](C)(O)[C@@H](OC(=O)CC(C)C)[C@H](C)O3)[C@H](N(C)C)[C@H]2O)[C@@H](CC=O)C[C@@H](C)[C@@H](O)/C=C/C=C/C[C@@H](C)OC(=O)C[C@H]1OC(C)=O` [Josamycin], the IC50 under setting [1] is more than 120 µM. This molecule had an inhibition at 120 µM under setting [2] of approximately 20%. As to `CC[C@H]1OC(=O)[C@H](C)[C@@H](O[C@H]2C[C@@](C)(OC)[C@@H](O)[C@H](C)O2)[C@H](C)[C@@H](O[C@@H]2O[C@H](C)C[C@H](N(C)C)[C@H]2O)[C@](C)(O)C[C@@H](C)C(=O)[C@H](C)[C@@H](O)[C@]1(C)O` [Erythromycin], the “IC50 (μM), in vitro inflammatory data (inhibition of NFkB activity)” value under setting [1] was “Inactive”.

On to `CC[C@H]1OC(=O)C[C@@H](O)[C@H](C)[C@@H](O[C@@H]2O[C@H](C)[C@@H](OC(=O)c3ccccc3)[C@H](N(C)C)[C@H]2OC(=O)c2ccccc2)[C@@H](CC=O)C[C@@H](C)C(=O)/C=C/C(C)=C/[C@@H]1CO` [compound (3)], for which the “activity in vitro inflammatory assay compared with Erythromycin, Clarithromycin, Josamycin and Tylosin” value (comparison in words) is “improved activity”.
